Experimental data as given in ChEMBL document CHEMBL1151479, “Hypoxia-inducible factor-1 inhibitory benzofurans and chalcone-derived diels-alder adducts from Morus species” (J Nat Prod, 2009).

Experiments:
[1] = target: Hypoxia inducible factors; HIF-1-alpha, HIF-2-alpha (Homo sapiens, UniProt Q16665+Q99814); assay: Inhibition of hypoxia-induced HIF1 activation in human Hep3B cells by pGL3-HRE-luciferase reporter gene assay; type: cell-based; conditions: hep 3b2
Hep 3B2 [2] = assay: Inhibition of hypoxia-induced VEGF protein secretion in human Hep3B cells after 16 hrs by ELISA; type: functional, cell-based
[3] = Cytotoxicity against human Hep3B cells after 24 hrs by MTT assay; type: cell-based; conditions: hep 3b2, 24 h
Hep 3B2 [4] = assay: Inhibition of luciferase expression in human Hep3B cells after 16 hrs under hypoxic condition; type: functional, cell-based
Hep 3B2 [5] = assay: Effect on luciferase activity in human Hep3B cells exposed to hypoxic condition for 16 hrs; type: functional, cell-based

With `CC(C)=CCc1c(O)ccc(C(=O)[C@H]2[C@@H](c3c(O)ccc(C(=O)/C=C/c4ccc(O)cc4O)c3O)C=C(C)C[C@@H]2c2ccc(O)cc2O)c1O` the IC50 [1] was 8.55 µM, the IC50 (Hep 3B2 [2]) was 3.14 µM and the Activity [3] was “Dose-dependent effect”.

`CC(C)=CCc1c(O)ccc(C(=O)[C@H]2[C@@H](c3c(O)ccc(C(=O)/C=C/c4ccc(O)cc4)c3O)C=C(C)C[C@@H]2c2ccc(O)cc2)c1O` gave an IC50 [1] of 9.54 µM and an IC50 (Hep 3B2 [2]) of 7.84 µM.

For `CC(C)=CCC/C(C)=C/Cc1c(O)cc(O)cc1-c1cc2ccc(O)cc2o1` [ALBAFURAN A], the IC50 [1] was 6.27 µM, the IC50 (Hep 3B2 [2]) was 2.62 µM and the Activity [3] was “Dose-dependent effect”.

Compound `CO[C@H]1/C=C\C=C(/C)C(=O)NC2=CC(=O)C(NCCN(C)C)=C(C[C@@H](C)C[C@H](OC)[C@H](O)[C@@H](C)/C=C(\C)[C@@H]1OC(N)=O)C2=O` [ALVESPIMYCIN] has an IC50 [1] of over 30 µM and an IC50 (Hep 3B2 [2]) of 0.0795 µM.

Work on `Oc1cc(O)cc(-c2cc3ccc(O)cc3o2)c1` [MORACIN M] yielded an IC50 [1] of over 30 µM and an IC50 (Hep 3B2 [2]) of over 50 µM.

For `CC(C)(O)C1Cc2cc3cc(-c4cc(O)cc(O)c4)oc3cc2O1` (stereo not drawn) [MORACIN O], the IC50 [1] was over 30 µM, the IC50 (Hep 3B2 [2]) was 7.22 µM and the Activity [3] was “Dose-dependent effect”. For the same compound, the IC50 (Hep 3B2 [4]) was 0.00179 µM and the EC50 (Hep 3B2 [5]) was 0.001 µM.

For `CC1(C)Oc2cc3oc(-c4cc(O)cc(O)c4)cc3cc2C[C@H]1O` [MORACIN P], the IC50 [1] was over 30 µM, the IC50 (Hep 3B2 [2]) was 10.6 µM and the Activity [3] was “Dose-dependent effect”.

In the case of `COc1c(O)cc2oc(-c3cc(O)cc(O)c3)cc2c1CC(=O)C(C)C` [MORACIN Q], the IC50 [1] is reported as over 30 µM, the IC50 (Hep 3B2 [2]) is reported as 9.28 µM and the Activity [3] is reported as “Dose-dependent effect”.

For `CC(C)=CCC/C(C)=C/Cc1c(O)ccc2cc(-c3cc(O)cc(O)c3CC=C(C)C)oc12` [MULBERROFURAN D], the IC50 [1] was 8.76 µM, the IC50 (Hep 3B2 [2]) was 2.17 µM and the Activity [3] was “Dose-dependent effect”.

For `CC1=C[C@H]2c3c(O)cc(-c4cc5ccc(O)cc5o4)cc3O[C@@]3(c4ccc(O)cc4O)Oc4cc(O)ccc4[C@H](C1)[C@@H]23` [MULBERROFURAN G], the IC50 [1] was over 30 µM and the IC50 (Hep 3B2 [2]) was 28.6 µM.

With `C[C@@]12C=C(c3c(O)cc(-c4cc5ccc(O)cc5o4)cc3O)C[C@@H](C1)c1ccc(O)cc1O2` [MULBERROFURAN H] the IC50 [1] was over 30 µM, the IC50 (Hep 3B2 [2]) was 15.4 µM and the Activity [3] was “Dose-dependent effect”.

Work on `CC(C)=CCC/C(C)=C\CC/C(C)=C\Cc1c(O)cc(O)cc1-c1cc2ccc(O)cc2o1` [MULBERROFURAN W] yielded an IC50 [1] of 6.07 µM and an IC50 (Hep 3B2 [2]) of 3.05 µM.

`CC(C)=CC[C@]12Oc3cc(O)c([C@H]4C=C(C)C[C@H](c5ccc(O)cc5O)[C@H]4C(=O)c4ccc(O)cc4O)c(O)c3C(=O)[C@@]1(O)Oc1cc(O)ccc12` [SANGGENON C] gave an IC50 [1] of 8.26 µM and an IC50 (Hep 3B2 [2]) of 3.2 µM.

With `CC(C)=CC[C@@]12Oc3cc(O)c([C@H]4C=C(C)C[C@H](c5ccc(O)cc5O)[C@H]4C(=O)c4ccc(O)cc4O)c(O)c3C(=O)[C@]1(O)Oc1cc(O)ccc12` [SANGGENON O] the IC50 [1] was 8.75 µM, the IC50 (Hep 3B2 [2]) was 2.08 µM and the Activity [3] was “Dose-dependent effect”.
